Counter-ions that a name gives are not always drawn.
Molecular target: T1, SPNS2 (Mus musculus, UniProt Q91VM4)
T1 construct: expressed in transfected cells; host or cells: HeLa or U937 cells
T1 sequence (Q91VM4 1-549): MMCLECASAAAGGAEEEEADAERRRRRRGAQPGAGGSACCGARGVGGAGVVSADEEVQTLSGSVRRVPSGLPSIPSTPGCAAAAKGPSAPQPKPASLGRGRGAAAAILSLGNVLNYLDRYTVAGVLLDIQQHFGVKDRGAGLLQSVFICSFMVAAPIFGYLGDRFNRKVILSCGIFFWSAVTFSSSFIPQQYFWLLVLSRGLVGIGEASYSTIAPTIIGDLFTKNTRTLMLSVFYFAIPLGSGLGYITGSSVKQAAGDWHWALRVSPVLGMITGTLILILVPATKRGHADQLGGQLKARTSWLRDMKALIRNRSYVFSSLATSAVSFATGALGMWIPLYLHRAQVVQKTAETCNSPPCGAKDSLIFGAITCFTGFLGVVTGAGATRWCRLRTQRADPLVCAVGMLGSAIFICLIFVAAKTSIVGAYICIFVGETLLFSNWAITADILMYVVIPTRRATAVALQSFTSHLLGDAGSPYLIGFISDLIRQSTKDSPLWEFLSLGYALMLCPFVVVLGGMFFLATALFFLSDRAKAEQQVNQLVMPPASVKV
Experiment: S1P transporter assay: S1P release from whole cells expressing SPNS2
Type: cell-based
Details: HeLa or U937 cells expressing mouse SPNS2; 18 hours; S1P in media measured by LC-MS; read-out: IC50 (in vitro inhibition against SPNS2)
Protocol: Transporter assays are vectorial and therefore require measurement of the transported analyte in different compartments. The S1P transporter SPNS2 only exports S1P, which obviates measuring uptake of S1P into transporter-expressing cells. Thus, transporter activity was determined by quantifying S1P release from whole cells expressing SPNS2. SPNS2 inhibitor potency was assessed using whole cell assays. HeLa or U937 cells expressing mouse SPNS2 were used to determine inhibitor potency (IC50). Cells were plated onto 12 well plates and assayed when the cell monolayers became confluent. Cell growth media (RPMI-1640 containing 10% fetal bovine serum) was replaced with 2 mL of serum-free media (RPMI-1640) containing fatty acid free bovine serum albumin (BSA) (0.2% w/v) and supplemented with 4-deoxypyridoxine (DOP) (1 mM), NaF (2 mM), Na3VO4 (0.2 mM) to inhibit S1P degradation. Test articles (1×10-9-1×10^-4 M) were assayed in duplicate or triplicate. After 18 hours, media was collected, an internal recovery standard (0.005 mL of 5×10^-7 M deuterated (d7) S1P in methanol) was added, the BSA was precipitated with trichloroacetic acid and the bound S1P extracted with methanol. S1P and S1P-d7 were measured by liquid chromatography mass spectrometry. Inhibitor potency at the human SPNS2 ortholog was determined by an analogous assay using U-937 cells, which endogenously express human SPNS2.

CCCCCCCCCCc1ccc(-c2noc([C@@H](N)CCCN)n2)cc1 [Compound 19b, (S)-1-(3-(4-decylphenyl)-1,2,4-oxadiazol-5-yl)butane-1,4-diamine dihydrochloride]
IC50: > 2000 nM

CCCCCCCCCCc1ccc(-c2noc(CC(O)CNCC)n2)cc1 (stereo not drawn) [Compound 7a, 1-(3-(4-decylphenyl)-1,2,4-oxadiazol-5-yl)-3-(ethylamino)propan-2-ol hydrochloride]
IC50: > 2000 nM

CCCCCCCCCCc1ccc(-c2noc(CN)n2)cc1 [Compound 5f, (3-(4-decylphenyl)-1,2,4-oxadiazol-5-yl)methanamine 2,2,2-trifluoroacetate]
IC50: ≤ 2000 nM

CCCCCCCCCCc1ccc(-c2noc(CCCN)n2)cc1 [Compound 5e, 3-(3-(4-decylphenyl)-1,2,4-oxadiazol-5-yl)propan-1-amine 2,2,2-trifluoroacetate]
IC50: ≤ 2000 nM

CCCCCCCCCCc1ccc(-c2noc(C[C@H](C)N)n2)cc1 [Compound 5c, (S)-1-(3-(4-decylphenyl)-1,2,4-oxadiazol-5-yl)propan-2-amine 2,2,2-trifluoroacetate]
IC50: > 2000 nM

CCCCCCCCCCc1ccc(-c2noc(CNC(=O)CN)n2)cc1 [Compound 9b, 2-amino-N-((3-(4-decylphenyl)-1,2,4-oxadiazol-5-yl)methyl)acetamide hydrochloride]
IC50: > 2000 nM

CCCCCCCCCCc1ccc(-c2noc(C(=O)NCCCN)n2)cc1 [Compound 16b, N-(3-aminopropyl)-3-(4-decylphenyl)-1,2,4-oxadiazole-5-carboxamide hydrochloride]
IC50: > 2000 nM

CCCCCCCCCCc1ccc(-c2noc(CNC(=O)CCCCN)n2)cc1 [Compound 9g, 5-amino-N-((3-(4-decylphenyl)-1,2,4-oxadiazol-5-yl)methyl)pentanamide hydrochloride]
IC50: ≤ 2000 nM

CCCCCCCCCCc1ccc(-c2noc([C@@H]3CCN(C(=O)[C@H](C)N)C3)n2)cc1 [Compound 9ak, (S)-2-amino-1-((R)-3-(3-(4-decylphenyl)-1,2,4-oxadiazol-5-yl)pyrrolidin-1-yl)propan-1-one 2,2,2-trifluoroacetate]
IC50: ≤ 2000 nM

CCCCCCCCc1ccc(CCc2noc(CCCN)n2)cc1 [Compound 5s, 3-(3-(4-octylphenethyl)-1,2,4-oxadiazol-5-yl)propan-1-amine hydrochloride]
IC50: > 2000 nM

CCCCCCCCCCc1ccc(-c2noc([C@@H]3CCN(C(=O)CN)C3)n2)cc1 [Compound 9al, (R)-2-amino-1-(3-(3-(4-decylphenyl)-1,2,4-oxadiazol-5-yl)pyrrolidin-1-yl)ethan-1-one 2,2,2-trifluoroacetate]
IC50: > 2000 nM

CCCCCCCCCCc1ccc(-c2noc(CNC(=O)C3(N)CC3)n2)cc1 [Compound 9af, 1-amino-N-((3-(4-decylphenyl)-1,2,4-oxadiazol-5-yl)methyl)cyclopropane-1-carboxamide hydrochloride]
IC50: > 2000 nM

CCCCCCCCCCc1ccc(-c2noc(CNC(=O)C3CCNCC3)n2)cc1 [Compound 9p, N-((3-(4-decylphenyl)-1,2,4-oxadiazol-5-yl)methyl)piperidine-4-carboxamide hydrochloride]
IC50: > 2000 nM

CCCCCCCCCCc1ccc(-c2noc(CC(O)CN3CCCCC3)n2)cc1 (stereo not drawn) [Compound 6a, 1-(3-(4-decylphenyl)-1,2,4-oxadiazol-5-yl)-3-(piperidin-1-yl)propan-2-ol hydrochloride]
IC50: > 2000 nM

CCCCCCCCNC(=O)c1ccc(-c2noc([C@@H]3CCNC3)n2)cc1 [Compound 13c, (R)—N-octyl-4-(5-(pyrrolidin-3-yl)-1,2,4-oxadiazol-3-yl)benzamide hydrochloride]
IC50: > 2000 nM

CCCCCCCCCCc1ccc(-c2noc(CNC(=O)[C@@H]3CCC[C@H](N)C3)n2)cc1 [Compound 9r, (1R,3S)-3-amino-N-((3-(4-decylphenyl)-1,2,4-oxadiazol-5-yl)methyl)cyclohexane-1-carboxamide hydrochloride]
IC50: ≤ 2000 nM

CCCCCCCCCCc1ccc(-c2noc(CNC(=O)[C@H]3CCCCN3)n2)cc1 [Compound 9t, (R)—N-((3-(4-decylphenyl)-1,2,4-oxadiazol-5-yl)methyl)piperidine-2-carboxamide hydrochloride]
IC50: > 2000 nM

CCCCCCCCCCc1ccc(-c2noc(CNC(=O)[C@@H]3C[C@@H](F)CN3)n2)cc1 [Compound 9ae, (2S,4R)—N-((3-(4-decylphenyl)-1,2,4-oxadiazol-5-yl)methyl)-4-fluoropyrrolidine-2-carboxamide hydrochloride]
IC50: > 2000 nM

Reference: patent US20230373937A1, “INHIBITORS OF SPINSTER HOMOLOG 2 (SPNS2) FOR USE IN THERAPY” (University of Virginia Patent Foundation, priority 2020, published 2023)
